Data from paper PMC6650409, “Modeling the binding of diverse ligands within the Ah receptor ligand binding domain” (Scientific Reports, 2019).
Residue numbers refer to the chain shown, from its start. Like-named read-outs stand apart in the source and are kept apart here.

Key:
P291L AhR = target: T1, P291L AhR (Mus musculus, UniProt P30561, P291L); experiment: [3H]TCDD competitive ligand binding, P291L mutant AhR; settings: for change of relative binding affinity versus wild-type AhR: P291L substitution, in words
T1 construct: made in house; host or cells: in vitro, Promega TNT Quick rabbit reticulocyte lysate
T1 sequence (P30561 10-848 P291L): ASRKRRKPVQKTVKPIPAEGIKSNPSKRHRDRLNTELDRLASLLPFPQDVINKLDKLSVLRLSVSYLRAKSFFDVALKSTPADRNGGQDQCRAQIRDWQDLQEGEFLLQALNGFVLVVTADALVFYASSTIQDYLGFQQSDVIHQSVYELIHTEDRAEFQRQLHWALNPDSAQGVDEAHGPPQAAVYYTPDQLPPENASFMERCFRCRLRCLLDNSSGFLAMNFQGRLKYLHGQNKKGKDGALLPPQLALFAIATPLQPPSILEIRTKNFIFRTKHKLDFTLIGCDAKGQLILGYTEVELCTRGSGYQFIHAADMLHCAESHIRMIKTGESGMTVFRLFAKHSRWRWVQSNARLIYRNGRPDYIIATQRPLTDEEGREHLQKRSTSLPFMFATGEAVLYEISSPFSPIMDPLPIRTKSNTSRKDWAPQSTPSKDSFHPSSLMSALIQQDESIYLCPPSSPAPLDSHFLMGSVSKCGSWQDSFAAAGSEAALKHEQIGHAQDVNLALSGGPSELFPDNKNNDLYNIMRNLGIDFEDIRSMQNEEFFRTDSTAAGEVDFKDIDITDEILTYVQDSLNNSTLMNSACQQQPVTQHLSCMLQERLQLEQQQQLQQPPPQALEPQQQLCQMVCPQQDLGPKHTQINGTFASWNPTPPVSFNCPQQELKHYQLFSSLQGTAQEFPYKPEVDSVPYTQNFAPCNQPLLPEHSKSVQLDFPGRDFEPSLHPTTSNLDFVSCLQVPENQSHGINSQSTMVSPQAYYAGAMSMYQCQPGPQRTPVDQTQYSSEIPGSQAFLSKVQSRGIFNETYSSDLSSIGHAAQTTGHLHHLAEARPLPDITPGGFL
Experimental: The mouse AhR (mAhR) and ARNT (mARNT) expression plasmids, mβAhR/pcDNA3 and mβArnt/pcDNA3, have been previously described. Point mutations of mβAhR/pcDNA3 were carried out using the QuikChange Lightning Mutagenesis Kit (Agilent Technologies) and all constructs were verified by sequencing.
[^3H]TCDD specific binding to wild-type or mutant mAhRs synthesized in vitro using the Promega TNT Quick coupled transcription/translation rabbit reticulocyte lysate kit (Madison, WI) was carried out as previously described. [^3H]TCDD specific binding was determined by subtracting the amount of [^3H]TCDD bound to unprogrammed lysate (nonspecific binding) from the total amount of [^3H]TCDD binding to lysate containing in vitro expressed AhR. The amount of [^3H]TCDD specific binding remaining in the presence of the indicated competitor chemical was expressed as a percent of the total [^3H]TCDD specific binding. The relative binding affinity (IC50) of each chemical was determined from concentration-dependent competitive inhibition curves obtained using [^3H]TCDD and increasing concentrations of each test chemical and the mean IC50 value was determined using three-parameter non-linear regression.

S359A mutant AhR = target: T2, S359A mutant AhR (Mus musculus, UniProt P30561, S359A); set-up: method as in PMID 21981577; settings: S359A mutation; cited from earlier work
T2 construct: made in house; host or cells: in vitro, Promega TNT Quick rabbit reticulocyte lysate
T2 sequence (P30561 10-848 S359A): T1 sequence (P30561 10-848 P291L) with L282P, S350A

Q377A mutant AhR = tested on: Q377A mutant AhR; set-up: method as in PMID 17223691; settings: mutation of Q377 to alanine; cited from earlier work
[1] = Table S6, AhR mutant P291L, read-out: IC50

| Structure (SMILES) | change of relative binding affinity versus wild-type AhR (P291L AhR) | IC50 (P291L AhR; [1]) [nM] | TCDD binding activity (S359A mutant AhR) | TCDD specific binding (Q377A mutant AhR) | IC50 (P291L AhR; P291L AhR, read-out: relative affinity (IC50)) [nM] |
| --- | --- | --- | --- | --- | --- |
| c1ccc2c(c1)cc1ccc3cccc4ccc2c1c34 [BaP, Benzo(a)pyrene] | not statistically significant | 604 |  |  |  |
| Clc1cc2c(cc1Cl)Oc1cc(Cl)c(Cl)cc1O2 [TCDD, 2,3,7,8-tetrachlorodibenzo-p-dioxin] |  |  | only partially affected | abolish |  |
| Clc1cc2oc3cc(Cl)c(Cl)cc3c2cc1Cl [TCDF, 2,3,7,8-tetrachlorodibenzofuran] | dramatically enhanced | 0.0435 |  |  | 0.04 |
